Reference: patent publication US5708063A, “Photochromic compound” (Tokuyama Corporation, priority 1993, dated 1998)

Legend:
[1] = Photochromic PMMA cast film: initial coloration density, maximum absorption wavelength and fatigue life in xenon fadeometer (Example 9); assay type: physicochemical; conditions: PMMA cast film 0.1 mm; for λmax / Initial color density: xenon light; for Initial color density / T1/2: no stabilizer; for T1/2: time for color density to fall to half of initial value, xenon fadeometer;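 on Initial color density: initial color density is an absorbance value so the % unit is wrong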
Text: The thickness of the cast film was adjusted to 0.1 mm.
(§1) T1/2 is defined as the time required for the color density to decrease to half of its initial value when the film is exposed to the fadeometer.

[2] = Durability of poly(allyl diglycol carbonate) lens impregnated with the compound in silicone oil, as in Example 9 (Example 10); assay type: physicochemical; parameters: Initial color density: unit not given here; conditions: silicone oil impregnation; for Initial color density: 1.0×10^-4 mole/g; for T1/2: xenon fadeometer
Experimental: as §1
The solution was impregnated in the surface of a lens composed of poly(allyl diglycol carbonate) at 200° C. for 1 hour. The concentration of the solution was adjusted to 1.0×10^-4 mole/g.

Compound	λmax [1] [nm]	Initial color density [1] [%]	T1/2 [1] [h]	λmax [2] [nm]	Initial color density [2]	T1/2 [2] [h]
O=C1C2=C(C3CC3)c3cc(Br)sc3C3(C4CCCC3CCC4)C2C(=O)N1CCc1ccc2ccccc2c1 (stereo not drawn) [(3), 2-bromo-4-cyclopropyl-6,7-dihydrido-N-(β-naphtylethyl)spirobenzo[5,6-b]thiophenedicarboxyimido-7'9'-bicyclo[3.3.1]nonane]	545	0.88	45	550	0.81	49
Cc1cc2c(s1)C1(C3CCC1CC3)C1C(=O)N(C[N+](=O)[O-])C(=O)C1=C2C1CC1 (centres unmarked) [(8)]	571	0.69	75	578	0.63	80
CNC(=O)CN1C(=O)C2=C(C3CC3C(F)(F)F)c3cc([N+](=O)[O-])sc3C3(C4CCC3CC4)C2C1=O (centres unmarked) [(11)]	530	0.75	65	–	–	–
COC12CCC(CC1)C21c2oc3ccccc3c2C(C2CC2(Br)Br)=C2C(=O)N(CC(=O)OC(C)(C)CCC#N)C(=O)C21 (centres unmarked) [(13)]	495	0.69	47	–	–	–
N#CCOCN1C(=O)C2=C(C3CC3c3ccccc3)c3sccc3C3(C2C1=O)C1(Cl)CCC3(Cl)CC1 (centres unmarked) [(14)]	552	0.58	69	–	–	–
COCCOCN1C(=O)C2=C(C3(F)C(F)(F)C3(F)F)c3c(oc4ccccc34)C3(C2C1=O)C1(F)CCC3(F)CC1 (centres unmarked) [(16)]	498	0.82	91	–	–	–
COc1cc(OC)c2c(c1)C(C1C(C)(C)C1(C)C)=C1C(=O)N(Cc3ccc4ccccc4c3)C(=O)C1C21C2CCC1CC2 (centres unmarked) [(18)]	603	0.62	61	–	–	–
COC1CC1C1=C2C(=O)N(Cc3ccc4ccccc4c3)C(=O)C2C2(c3c1sc1ccccc31)C1CCC2CC1 (centres unmarked) [(19)]	524	0.58	81	–	–	–
COC(=O)CN1C(=O)C2=C(C3CC3)c3ccoc3C3(C4CCC3CC4)C2C1=O (centres unmarked) [(20)]	531	0.82	89	535	0.73	95
N#CCN1C(=O)C2=C(C3CC3Oc3ccccc3)c3ccoc3C3(C4CCC3CC4)C2C1=O (centres unmarked) [(22)]	554	0.81	88	559	0.70	93
CC(C)COC(=O)CN1C(=O)C2=C(C3C(CCl)C3CCl)c3cc(Br)sc3C3(C4CCCC3CCC4)C2C1=O (centres unmarked) [(23)]	539	0.87	53	–	–	–
CCC(C#N)N1C(=O)C2=C(C3CC3[N+](=O)[O-])c3c(sc4c3CCCC4)C3(C4CCCC3(C)CCC4)C2C1=O (centres unmarked) [(25)]	562	0.71	76	565	0.65	79
COC(=O)C(C)N1C(=O)C2=C(C3CC3OC(C)(C)C)c3cc(Cl)oc3C3(C4CCCC3(C)CC(C)(C)C4)C2C1=O (centres unmarked) [(26)]	546	0.78	72	–	–	–
CCCCC1CC2CCCC(C1)C21c2sc(C)c(CC)c2C(C2C(I)C2I)=C2C(=O)N(CC3CCCCC3C#N)C(=O)C21 (centres unmarked) [(27)]	553	0.68	51	–	–	–
COC12CCCC(CCC1)C21c2c(Cl)csc2C(C2CC2CCc2ccccc2)=C2C(=O)N(CC(=O)NCCBr)C(=O)C21 (centres unmarked) [(28)]	526	0.56	54	–	–	–
COc1cc(OC)c2c(c1)C(C1CC1O)=C1C(=O)N(C3CCC([N+](=O)[O-])CC3)C(=O)C1C21C2CCCC1(Cl)CCC2 (centres unmarked) [(29)]	588	0.52	62	–	–	–
CCOC(=O)OCN1C(=O)C2=C(C3C(c4ccccc4)C3c3ccccc3)c3cc(-c4ccc(OC)cc4)sc3C3(C4CCCC3CCC4)C2C1=O (centres unmarked) [(31)]	624	0.77	81	616	0.69	86
O=C1C2=C(C3CC3)c3sc4c(c3C3(C5CCCC3CCC5)C2C(=O)N1CCc1cccc2ccccc12)CCCC4 (centres unmarked) [(33)]	519	0.56	7.8	525	0.49	80
COC(=O)C(C)N1C(=O)C2=C(C3CC3)c3cc(-c4cccc(OC)c4)sc3C3(C4CC5CC(Cl)(C4)CC3(Cl)C5)C2C1=O (centres unmarked) [(35)]	574	0.73	85	580	0.67	90

Compound	λmax [1] [nm]	Initial color density [1] [%]	T1/2 [1] [h]	λmax [2] [nm]	Initial color density [2]	T1/2 [2] [h]
CCSC1CC1C1=C2C(=O)N(C(CC)COC(=O)OC[N+](=O)[O-])C(=O)C2C2(c3scc([N+](=O)[O-])c31)C1CC3CC2CC(C)(C3)C1 (centres unmarked) [(37)]	540	0.77	75	–	–	–
Cn1c2c(c3ccccc31)C1(C3CC4CC(C3)CC1C4)C1C(=O)N(CC(C)(C)CCOC(=O)CBr)C(=O)C1=C2C1CC1CCCc1ccccc1 (centres unmarked) [(38)]	592	0.61	68	–	–	–
COc1cc2c(c(OC)c1OC)C1(C3CC4CC1CC(OC)(C4)C3)C1C(=O)N(CC(=O)NCCBr)C(=O)C1=C2C1CC1C(Cl)(Cl)Cl (centres unmarked) [(39)]	527	0.58	65	–	–	–
CC(=O)OCN1C(=O)C2=C(C3CC3)c3sc(Br)cc3C3(C4CC5CC(C4)CC3C5)C2C1=O (centres unmarked) [(42)]	548	0.57	68	553	0.51	71
CCOC(=O)C12CC3CC(C1)C1(c4c([N+](=O)[O-])csc4C(C4CC4Br)=C4C(=O)N(CC(F)(F)F)C(=O)C41)C(C(=O)OCC)(C3)C2 (centres unmarked) [(43)]	509	0.62	72	–	–	–
CN(C)c1ccc2cc(CCCN3C(=O)C4=C(C5CC5)c5c([N+](=O)[O-])csc5C5(C6CC7CC(C6)CC5C7)C4C3=O)ccc2c1 (centres unmarked) [(47)]	529	0.72	52	–	–	–
COc1cc2c(c(OC)c1OC)C1(C3CCC1CC3)C1C(=O)OC(=O)C1=C2C1CC1 (centres unmarked) [(51)]	561	0.92	52	562	0.82	55
O=C1OC(=O)C2C1=C(C1CC1)c1c(oc3ccccc13)C21C2CCC1CC2 (centres unmarked) [(52)]	534	1.21	54	–	–	–
Cc1cc2c(n1C)C1(C3CCCC1CCC3)C1C(=O)OC(=O)C1=C2C1CC1 (centres unmarked) [(53)]	525	1.18	56	530	1.08	60
CCOc1cc2c(s1)C1(C3CCCC1CCC3)C1C(=O)OC(=O)C1=C2C1CC1 (centres unmarked) [(55)]	545	1.25	58	550	1.13	61
Cc1cc2c(s1)C1(C3CC4CC(Cl)(C3)CC1(Cl)C4)C1C(=O)OC(=O)C1=C2C1CC1 (centres unmarked) [(58)]	554	1.24	48	–	–	–
CCC(C(=O)OCCc1ccc2ccccc2c1)N1C(=O)C2=C(C)c3ccsc3C3(C4CC5CC(C4)CC3C5)C2C1=O (centres unmarked) [(A), reference compound]	520	0.51	24	–	–	–
CC1=C2C(=O)N(CCCCC(=O)OCCc3ccc4ccccc4c3)C(=O)C2C2(c3sccc31)C1CC3CC(C1)CC2C3 (centres unmarked) [(B), reference compound]	538	0.49	16	–	–	–
CC1=C2C(=O)N(C[N+](=O)[O-])C(=O)C2C2(c3sc(C)cc31)C1CCC2CC1 (centres unmarked) [(C), reference compound]	556	0.72	80	–	–	–
CC1=C2C(=O)N(CC#N)C(=O)C2C2(c3occc31)C1CCC2CC1 (centres unmarked) [(D), reference compound]	535	0.90	48	–	–	–
CC1=C2C(=O)N(CCCc3ccc4cc(N(C)C)ccc4c3)C(=O)C2C2(c3scc([N+](=O)[O-])c31)C1CC3CC(C1)CC2C3 (centres unmarked) [(E), reference compound]	535	–	14	–	–	–
CC1=C2C(=O)N(CCc3cccc4ccccc34)C(=O)C2C2(c3c1sc1c3CCCC1)C1CCCC2CCC1 (centres unmarked) [(F), reference compound]	508	0.47	13	–	–	–
CC1=C2C(=O)OC(=O)C2C2(c3sc4c(c31)CCCC4)C1CCCC2CCC1 (centres unmarked) [(G), reference compound]	585	0.71	10	–	–	–
